23 compounds from patent US10584128B2, “Bicyclic dihydropyrimidine-carboxamide derivatives as Rho-Kinase inhibitors” (CHIESI FARMACEUTICI S.p.A., priority 2016, dated 2020) can be followed below.

A word on the Ki: it is a measure of affinity in units of concentration, obtained from inhibition or displacement.

Assay [1] has as its target Rho kinase 2 (Homo sapiens, UniProt O75116). Briefly: In vitro Rho kinase inhibitory activity assay (ADP-Glo kit, Myelin Basic Protein substrate). In kind it is biochemical. The settings on record: 10 μM ATP, 25° C., read-out: ROCK2 inhibitory activity (Ki, range of activity). How it is done: (§1) The effectiveness of compounds of the present invention to inhibit Rho kinase activity can be determined in a 10 μl assay containing 40 mM Tris pH7.5, 20 mM MgCl2 0.1 mg/ml BSA, 50 μM DTT and 2.5 μM peptide substrate (Myelin Basic Protein) using an ADP-Glo kit (Promega). Compounds were dissolved in DMSO such that the final concentration of DMSO was 1% in the assay. All reactions/incubations are performed at 25° C. Compound (2 ul) and either Rho kinase 1 or 2 (4 μl) were mixed and incubated for 30 mins. Reactions were initiated by addition of ATP (4 μl) such that the final concentration of ATP in the assay was 10 μM. After a 1 hour incubation 10 μl of ADP-Glo Reagent was added and after a further 45 minute incubation 20 ul of Kinase Detection Buffer was added and the mixture incubated for a further 30 minutes. The luminescent signal was measured on a luminometer. […] Compounds were tested in dose-response format and the inhibition of kinase activity was calculated at each concentration of compound. To determine the IC50 (concentration of compound required to inhibit 50% of the enzyme activity) data were fit to a plot of % inhibition vs Log10 compound concentration using a sigmoidal fit with a variable slope and fixing the maximum to 100% and the minimum to 0%. To determine the Ki values the Cheng-Prusoff equation was utilized (Ki=IC50/(1+[S]/Km).

Assay [2] deals with Rho kinase 1 (Homo sapiens, UniProt Q13464). The description is as above. In kind it is biochemical. The settings on record: 10 μM ATP, 25° C., read-out: ROCK1 inhibitory activity (Ki, range of activity). How it is done: as §1
Rho kinase 1, sequence (Q13464 whole entry): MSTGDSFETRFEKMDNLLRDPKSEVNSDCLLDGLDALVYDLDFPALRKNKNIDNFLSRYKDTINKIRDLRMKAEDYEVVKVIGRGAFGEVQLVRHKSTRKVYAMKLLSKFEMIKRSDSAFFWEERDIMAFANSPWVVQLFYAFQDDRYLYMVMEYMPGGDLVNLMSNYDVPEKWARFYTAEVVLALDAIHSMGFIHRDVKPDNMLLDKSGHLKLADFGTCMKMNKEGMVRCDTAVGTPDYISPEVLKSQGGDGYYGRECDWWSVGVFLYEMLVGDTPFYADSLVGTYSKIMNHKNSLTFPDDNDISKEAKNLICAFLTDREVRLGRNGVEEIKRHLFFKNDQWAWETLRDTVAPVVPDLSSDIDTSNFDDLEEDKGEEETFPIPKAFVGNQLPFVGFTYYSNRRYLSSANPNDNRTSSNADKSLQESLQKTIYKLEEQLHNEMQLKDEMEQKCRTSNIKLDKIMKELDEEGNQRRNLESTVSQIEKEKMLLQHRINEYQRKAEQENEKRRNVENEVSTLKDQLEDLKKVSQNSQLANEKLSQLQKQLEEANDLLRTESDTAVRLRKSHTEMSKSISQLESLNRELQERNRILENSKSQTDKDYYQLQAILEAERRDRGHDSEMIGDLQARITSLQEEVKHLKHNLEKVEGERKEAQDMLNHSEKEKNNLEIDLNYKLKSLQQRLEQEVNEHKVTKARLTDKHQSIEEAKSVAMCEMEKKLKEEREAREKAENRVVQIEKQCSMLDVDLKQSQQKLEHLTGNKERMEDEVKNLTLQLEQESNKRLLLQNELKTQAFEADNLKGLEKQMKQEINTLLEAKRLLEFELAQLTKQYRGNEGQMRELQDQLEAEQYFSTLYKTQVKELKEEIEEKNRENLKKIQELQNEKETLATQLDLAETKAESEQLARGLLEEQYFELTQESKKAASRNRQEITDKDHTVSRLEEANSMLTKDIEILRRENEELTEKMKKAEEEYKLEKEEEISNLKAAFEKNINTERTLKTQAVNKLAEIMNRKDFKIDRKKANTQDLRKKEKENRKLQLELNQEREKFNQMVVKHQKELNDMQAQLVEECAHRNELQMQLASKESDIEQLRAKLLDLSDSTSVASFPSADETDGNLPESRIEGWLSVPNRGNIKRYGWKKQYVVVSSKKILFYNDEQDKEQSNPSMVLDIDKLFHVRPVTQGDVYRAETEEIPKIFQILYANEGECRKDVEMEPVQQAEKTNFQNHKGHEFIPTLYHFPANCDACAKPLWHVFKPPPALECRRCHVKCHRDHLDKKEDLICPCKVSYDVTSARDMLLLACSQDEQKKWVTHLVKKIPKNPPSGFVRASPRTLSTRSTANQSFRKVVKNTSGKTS

Rho kinase 2, sequence (O75116 whole entry): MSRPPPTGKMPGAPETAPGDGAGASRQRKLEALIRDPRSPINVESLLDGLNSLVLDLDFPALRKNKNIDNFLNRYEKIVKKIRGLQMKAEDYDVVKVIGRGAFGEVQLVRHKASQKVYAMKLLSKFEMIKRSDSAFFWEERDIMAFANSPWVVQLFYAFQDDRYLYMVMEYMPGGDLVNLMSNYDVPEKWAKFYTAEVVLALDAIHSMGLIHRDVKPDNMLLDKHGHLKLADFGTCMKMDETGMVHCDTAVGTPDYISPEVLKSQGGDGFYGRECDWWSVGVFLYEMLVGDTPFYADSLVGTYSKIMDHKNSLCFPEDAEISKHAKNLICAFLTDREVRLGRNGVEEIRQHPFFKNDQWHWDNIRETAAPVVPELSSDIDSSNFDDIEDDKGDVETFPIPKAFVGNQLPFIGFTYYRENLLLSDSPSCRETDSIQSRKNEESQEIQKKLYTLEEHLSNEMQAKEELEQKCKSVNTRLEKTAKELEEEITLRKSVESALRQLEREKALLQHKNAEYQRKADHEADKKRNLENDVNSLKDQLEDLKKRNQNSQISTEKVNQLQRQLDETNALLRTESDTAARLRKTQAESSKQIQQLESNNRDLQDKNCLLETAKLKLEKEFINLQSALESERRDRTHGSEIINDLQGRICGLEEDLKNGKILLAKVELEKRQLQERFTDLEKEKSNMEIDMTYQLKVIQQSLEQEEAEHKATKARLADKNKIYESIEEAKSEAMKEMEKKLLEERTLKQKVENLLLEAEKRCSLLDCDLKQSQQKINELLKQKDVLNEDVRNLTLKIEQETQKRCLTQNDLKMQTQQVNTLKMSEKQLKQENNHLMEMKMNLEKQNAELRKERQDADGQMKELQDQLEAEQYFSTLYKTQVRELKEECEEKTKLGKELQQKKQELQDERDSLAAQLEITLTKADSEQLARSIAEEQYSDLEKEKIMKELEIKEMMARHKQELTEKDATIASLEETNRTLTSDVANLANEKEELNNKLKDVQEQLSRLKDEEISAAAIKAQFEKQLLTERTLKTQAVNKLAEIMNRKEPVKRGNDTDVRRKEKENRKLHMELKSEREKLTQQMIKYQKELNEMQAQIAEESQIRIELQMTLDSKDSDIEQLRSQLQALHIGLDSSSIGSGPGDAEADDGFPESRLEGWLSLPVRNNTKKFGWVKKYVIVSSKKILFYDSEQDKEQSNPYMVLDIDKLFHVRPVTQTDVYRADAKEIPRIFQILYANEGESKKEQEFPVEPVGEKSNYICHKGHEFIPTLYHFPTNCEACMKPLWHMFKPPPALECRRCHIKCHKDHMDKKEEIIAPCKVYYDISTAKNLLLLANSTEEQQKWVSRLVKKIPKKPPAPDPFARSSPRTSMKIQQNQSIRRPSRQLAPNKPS

`CC1=C(C(=O)Nc2ccc3[nH]ncc3c2)C(c2ccc(F)cc2)n2ncc(Br)c2N1` (centres unmarked) [Example 22, 3-bromo-7-(4-fluorophenyl)-N-(1H-indazol-5-yl)-5-methyl-4,7-dihydropyrazolo[1,5-a]pyrimidine-6-carboxamide]: the Ki in assay [1] and in assay [2] was under 0.05 µM each time. As to `CC1=C(C(=O)Nc2ccc3cnccc3c2)C(c2cccc(C(F)(F)F)c2)n2nc(CO)cc2N1` (centres unmarked) [Example 51, 2-(hydroxymethyl)-N-(isoquinolin-6-yl)-5-methyl-7-(3-(trifluoromethyl)phenyl)-4,7-dihydropyrazolo[1,5-a]pyrimidine-6-carboxamide], the Ki in assay [1] and in assay [2] was under 0.05 µM throughout. Turning to `CC1=C(C(=O)Nc2ccc3cnccc3c2)C(C2Cc3ccccc3C2)n2nc(CO)cc2N1` (single isomer, unassigned) [Example 60A, 7-(2,3-dihydro-1H-inden-2-yl)-2-(hydroxymethyl)-N-(isoquinolin-6-yl)-5-methyl-4,7-dihydropyrazolo[1,5-a]pyrimidine-6-carboxamide], the Ki in assay [1] and in assay [2] was under 0.05 µM in each case. Consider `CC1=C(C(=O)Nc2ccc3cnccc3c2)C(c2ccc(C(F)(F)F)c(F)c2)n2nc(C3CCN(C(=O)CCN4CCCCC4)CC3)cc2N1` (single isomer, unassigned) [135A], for which the inhibition constant (Ki) in assay [1] and in assay [2] was over 0.5 µM in each case. Regarding `CCOC(=O)c1cc2n(n1)C(c1ccc(F)cc1)C(C(=O)Nc1ccc3[nH]ncc3c1)=C(C)N2` (single isomer, unassigned) [Example 4B, ethyl 6-((1H-indazol-5-yl)carbamoyl)-7-(4-fluorophenyl)-5-methyl-4,7-dihydropyrazolo[1,5-a]pyrimidine-2-carboxylate], the Ki in assay [1] and in assay [2] was under 0.05 µM throughout.

Regarding `CC1=C(C(=O)Nc2ccc3cnccc3c2)C(c2ccc(C(F)(F)F)c(F)c2)n2nc(C(=O)NCCN3CCCCC3)nc2N1` (centres unmarked) [Example 129, 7-(3-fluoro-4-(trifluoromethyl)phenyl)-N6-(isoquinolin-6-yl)-5-methyl-N2-(2-(piperidin-1-yl)ethyl)-4,7-dihydro-[1,2,4]triazolo[1,5-a]pyrimidine-2,6-dicarboxamide], the inhibition constant (Ki) in assay [1] and in assay [2] was under 0.05 µM throughout.

With `CC1=C(C(=O)Nc2ccc3cnccc3c2)C(c2ccc(C(F)(F)F)c(F)c2)n2nc(CN3CCC(N4CCCC4)CC3)cc2N1` (centres unmarked) [Example 105, 7-(3-fluoro-4-(trifluoromethyl)phenyl)-N-(isoquinolin-6-yl)-5-methyl-2-((4-(pyrrolidin-1-yl)piperidin-1-yl)methyl)-4,7-dihydropyrazolo[1,5-a]pyrimidine-6-carboxamide], the Ki in assay [1] and in assay [2] was under 0.05 µM in each case. With `CC1=C(C(=O)Nc2cc3cn[nH]c3cc2F)C(c2ccc(Cl)nc2)n2nc(C(F)(F)F)cc2N1` (centres unmarked) [Example 39, 7-(6-chloropyridin-3-yl)-N-(6-fluoro-1H-indazol-5-yl)-5-methyl-2-(trifluoromethyl)-4,7-dihydropyrazolo[1,5-a]pyrimidine-6-carboxamide], the inhibition constant (Ki) in assay [1] and in assay [2] was under 0.05 µM throughout.

On to `CC1=C(C(=O)Nc2ccc3[nH]ncc3c2)C(c2ccc(F)cc2)n2ncc(C(=O)NCCN(C)C)c2N1` (centres unmarked) [Example 92, N3-(2-(dimethylamino)ethyl)-7-(4-fluorophenyl)-N6-(1H-indazol-5-yl)-5-methyl-4,7-dihydropyrazolo[1,5-a]pyrimidine-3,6-dicarboxamide], for which the Ki in assay [1] and in assay [2] was over 0.5 µM throughout. On to `CC1=C(C(=O)Nc2ccc3cnccc3c2)C(c2cnc(-c3ccccc3)o2)n2nc(CO)cc2N1` (centres unmarked) [Example 49, 2-(hydroxymethyl)-N-(isoquinolin-6-yl)-5-methyl-7-(2-phenyloxazol-5-yl)-4,7-dihydropyrazolo[1,5-a]pyrimidine-6-carboxamide], for which the figures for the Ki in assay [1] and in assay [2] were under 0.05 µM and 0.05 to 0.5 µM, respectively. As for `CCOC(=O)c1nn2c(c1C#N)NC(C)=C(C(=O)Nc1ccc3[nH]ncc3c1)C2c1ccc(C(F)(F)F)cc1` (centres unmarked) [Example 16, ethyl 6-((1H-indazol-5-yl)carbamoyl)-3-cyano-5-methyl-7-(4-(trifluoromethyl)phenyl)-4,7-dihydropyrazolo[1,5-a]pyrimidine-2-carboxylate], the Ki in assay [1] and in assay [2] was under 0.05 µM each time. As to `CC1=C(C(=O)Nc2ccc3cnccc3c2)C(c2ccc(C)c(F)c2)n2nc(CO)cc2N1` (centres unmarked) [Example 58, 7-(3-fluoro-4-methylphenyl)-2-(hydroxymethyl)-N-(isoquinolin-6-yl)-5-methyl-4,7-dihydropyrazolo[1,5-a]pyrimidine-6-carboxamide], the Ki in assay [1] and in assay [2] was under 0.05 µM throughout. For `CC1=C(C(=O)Nc2ccc3cnccc3c2)C(c2ccc(C(F)(F)F)c(F)c2)n2nc(C(=O)NC3CC3)cc2N1` (centres unmarked) [Example 125, N2-cyclopropyl-7-(3-fluoro-4-(trifluoromethyl)phenyl)-N6-(isoquinolin-6-yl)-5-methyl-4,7-dihydropyrazolo[1,5-a]pyrimidine-2,6-dicarboxamide], the inhibition constant (Ki) in assay [1] and in assay [2] was under 0.05 µM each time.

Consider `CC1=C(C(=O)Nc2cc3cn[nH]c3cc2F)C(c2ccc(C(F)(F)F)c(F)c2)n2nnnc2N1` (single isomer, unassigned) [Example 40A, N-(6-fluoro-1H-indazol-5-yl)-7-(3-fluoro-4-(trifluoromethyl)phenyl)-5-methyl-4,7-dihydrotetrazolo[1,5-a]pyrimidine-6-carboxamide], for which the inhibitory constant (Ki) in assay [1] and in assay [2] was under 0.05 µM each time. Regarding `CC1=C(C(=O)Nc2ccc3[nH]ncc3c2)C(c2ccc(C)cc2)n2nc(CO)cc2N1` (centres unmarked) [Example 67, 2-(hydroxymethyl)-N-(1H-indazol-5-yl)-5-methyl-7-(p-tolyl)-4,7-dihydropyrazolo[1,5-a]pyrimidine-6-carboxamide], the Ki in assay [1] and in assay [2] was under 0.05 µM throughout. Consider `CCOC(=O)c1cc2n(n1)C(c1ccc(C)cc1)C(C(=O)Nc1ccc3[nH]ncc3c1)=C(C)N2` (centres unmarked) [Example 3, ethyl 6-((1H-indazol-5-yl)carbamoyl)-5-methyl-7-(p-tolyl)-4,7-dihydropyrazolo[1,5-a]pyrimidine-2-carboxylate], for which the inhibition constant (Ki) in assay [1] and in assay [2] was under 0.05 µM in each case. For the compound `CC1=C(C(=O)Nc2ccc3cnccc3c2)C(c2ccc(C(F)(F)F)c(F)c2)n2nc(NC(=O)c3ccc(CN(C)C)cc3)cc2N1` (single isomer, unassigned) [Example 137B, 2-(4-((Dimethylamino)methyl)benzamido)-7-(3-fluoro-4-(trifluoromethyl)-phenyl)-N-(isoquinolin-6-yl)-5-methyl-4,7-dihydropyrazolo[1,5-a]pyrimidine-6-carboxamide], the inhibition constant (Ki) in assay [1] and in assay [2] was under 0.05 µM each time. As to `CC1=C(C(=O)Nc2ccc3[nH]ncc3c2)C(c2ccc(Cl)cc2F)n2nc(CO)cc2N1` (centres unmarked) [Example 68, 7-(4-chloro-2-fluorophenyl)-2-(hydroxymethyl)-N-(1H-indazol-5-yl)-5-methyl-4,7-dihydropyrazolo[1,5-a]pyrimidine-6-carboxamide], the inhibitory constant (Ki) in assay [1] and in assay [2] was under 0.05 µM throughout. For the compound `COC1CN(Cc2cc3n(n2)C(c2ccc(C(F)(F)F)c(F)c2)C(C(=O)Nc2ccc4cnccc4c2)=C(C)N3)C1` (centres unmarked) [Example 100, 7-(3-fluoro-4-(trifluoromethyl)phenyl)-N-(isoquinolin-6-yl)-2-((3-methoxyazetidin-1-yl)methyl)-5-methyl-4,7-dihydropyrazolo[1,5-a]pyrimidine-6-carboxamide], the inhibition constant (Ki) in assay [1] and in assay [2] was under 0.05 µM each time. Turning to `CCOC(=O)c1cc2n(n1)C(c1ccc(Cl)nc1)C(C(=O)Nc1ccc3[nH]ncc3c1)=C(C)N2` (centres unmarked) [Example 5, ethyl 6-((1H-indazol-5-yl)carbamoyl)-7-(6-chloropyridin-3-yl)-5-methyl-4,7-dihydropyrazolo[1,5-a]pyrimidine-2-carboxylate], the inhibitory constant (Ki) in assay [1] and in assay [2] was under 0.05 µM throughout.

For `CC1=C(C(=O)Nc2ccc3[nH]ncc3c2)C(c2ccc(C(F)(F)F)cc2)n2nc(C(=O)O)cc2N1` (centres unmarked) [Example 73, 6-((1H-indazol-5-yl)carbamoyl)-5-methyl-7-(4-(trifluoromethyl)phenyl)-4,7-dihydropyrazolo[1,5-a]pyrimidine-2-carboxylic acid], the Ki in assay [1] and in assay [2] was under 0.05 µM in each case.

Consider `CC1=C(C(=O)Nc2ccc3cnccc3c2)C(c2ccc(C(F)(F)F)c(F)c2)n2nc(C(=O)NCCN3CCCCC3)nc2N1` (single isomer, unassigned) [Example 129b, 7-(3-fluoro-4-(trifluoromethyl)phenyl)-N6-(isoquinolin-6-yl)-5-methyl-N2-(2-(piperidin-1-yl)ethyl)-4,7-dihydro-[1,2,4]triazolo[1,5-a]pyrimidine-2,6-dicarboxamide], for which the Ki in assay [2] is under 0.05 µM. Consider `CC1=C(C(=O)Nc2ccc3cnccc3c2)C(c2ccc(C(F)(F)F)c(F)c2)n2nc(NC(=O)CCN3CCCCC3)cc2N1` (single isomer, unassigned) [131B], for which the inhibition constant (Ki) in assay [1] is under 0.05 µM.
